Test results from US12544375B2, “Small molecule therapeutic for parkinson's disease paired with a biomarker of therapeutic activity” (The Board of Trustees of the Leland Stanford Junior …, priority 2019, dated 2026).

Experiments:
DMiro = molecular target: T1, DMiro (Drosophila melanogaster, UniProt Q8IMX7); experiment: DMiro level in PD flies fed compound, Western blot; type: in vivo, fly; settings: 2.5 μM, mutant LRRK2, PINK1 and SNCA flies
T1 construct: PD flies were fed with 2.5 μM Miro1 Reducer for the indicated time periods and lysed for blotting DMiro; from tissue; host or cells: whole flies (mutant LRRK2, PINK1 null) or heads (mutant SNCA flies)
T1 sequence (Q8IMX7 1-652): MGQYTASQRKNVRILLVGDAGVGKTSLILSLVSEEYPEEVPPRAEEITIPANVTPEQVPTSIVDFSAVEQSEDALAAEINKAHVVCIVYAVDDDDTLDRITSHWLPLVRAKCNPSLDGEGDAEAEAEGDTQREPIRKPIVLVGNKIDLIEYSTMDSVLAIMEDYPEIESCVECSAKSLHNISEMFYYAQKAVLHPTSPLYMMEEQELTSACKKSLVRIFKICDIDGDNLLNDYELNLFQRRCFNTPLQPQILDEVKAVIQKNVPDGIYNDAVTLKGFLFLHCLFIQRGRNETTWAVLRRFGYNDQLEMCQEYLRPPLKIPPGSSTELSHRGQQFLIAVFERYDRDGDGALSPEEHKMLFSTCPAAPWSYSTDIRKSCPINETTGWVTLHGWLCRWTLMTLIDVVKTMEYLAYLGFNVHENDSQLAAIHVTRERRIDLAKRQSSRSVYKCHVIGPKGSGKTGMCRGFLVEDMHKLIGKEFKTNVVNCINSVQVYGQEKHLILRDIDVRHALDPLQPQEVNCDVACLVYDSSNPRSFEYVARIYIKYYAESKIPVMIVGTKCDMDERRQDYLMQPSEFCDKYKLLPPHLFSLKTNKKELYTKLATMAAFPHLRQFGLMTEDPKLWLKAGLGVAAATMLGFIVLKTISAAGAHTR
Procedure: (§1) FIG. 8. Related to FIG. 2-4. Miro1 Reducer in Human Cell and Fly Models. (A) Fibroblasts from Healthy-1 and PD-2 were treated, lysed, and blotted as indicated. Band intensities are normalized to those of GAPDH from the same blots and compared to “Healthy-1, no treatment”. n=4 independent experiments. (B) Fibroblasts from PD-2 were treated and immunostained as indicated. The intensity was quantified for each cell across 264-320 cells from 3 independent experiments, compared to “no treatment”. (C) Fibroblasts were treated, immunoprecipitated (IPed) with anti-Miro1, and blotted as indicated. Similar results were observed twice. (D) Similar as in (C), fibroblasts were treated as indicated, and IPed with anti-Miro1. The GTPase activity of the IPed Miro1 protein was measured as described in Method. […] The MitoSox intensity was quantified for each cell across 106-161 cells from 3 coverslips. […] The TMRM intensity was measured for each cell across 48-60 cells from 3 independent experiments, and expressed as a fraction of the mean of “Healthy-1, no treatment”. […] The movement (the intensity of non-yellow) was quantified for each cell as described in (Tsai et al., 2014) across 22-31 cells from 3 transfections. […] (1) Left: The percentage of TH-positive iPSC-derived neurons out of total cells (Dapi-positive) is calculated after immunocytochemistry under 20× as described in FIG. 3. […]

[1] = system: healthy-1 or PD-2 fibroblasts; experiment: Mitochondrial morphology and membrane potential, TMRM staining; type: cell-based, human; settings: 10 μM for 30 hrs
Procedure: as §1

O=C(Nc1ccc(Nc2cc(-n3ccnc3)ncn2)cc1)Nc1cccc(F)c1 [Miro1 Reducer]
DMiro band intensity in PD flies (DMiro): trend of DMiro reduction | general mitochondrial morphology and ΔΨm (TMRM) [1]: did not affect
